Numbered stars: 1 amine (or outer) side, 2 acyl side, 3 side chain; on linkers, the order of the positions; unused ones are H or OH. Square brackets hold non-standard residues; d marks the D form. Peptide text beside a SMILES is read from it. ξ: configuration not given here. X3 = CC1(C)OCC2OC(N3C(=N)NCC3C(O)C(N[*:1])C(=O)[*:2])C3OC(C)(C)OC3C2O1; ξEnduracididine(βξ-OH,4'ξ) = N=C1NCC(C(O)C(N)C(=O)O)N1; ξPhe(βξ-Me) = CC(c1ccccc1)C(N)C(=O)O
Assays:
Assay in all cases: In vitro antibacterial evaluation: minimum inhibitory concentration (MIC), broth dilution method
Type in all cases: cell-based
Details in all cases: 18 hours at 35° C.
[1] = system: Staphylococcus sp.
In short: (§1)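 NCCLS M7-A2 broth dilution with Mueller-Hinton II, testing 64-0.06 μg/mL antibiotic against 5×10^5 CFU/mL inocula. Test strains include recent methicillin-, penicillin- or vancomycin-resistant clinical isolates. MIC is the lowest concentration preventing growth.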

[2] = system: Escherichia coli
In short: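 NCCLS M7-A2 broth dilution; Muller-Hinton II […]; 5×10^5 CFU/mL; 64-0.06 μg/mL. MIC = lowest concentration with no growth.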

[3] = system: Enterococcus sp.
In short: as §1

[4] = system: Streptococcus sp.
In short: as §1

CC(c1ccccc1)C1NC(=O)CNC(=O)C(CO)NC(=O)C(C(O)C2CNC(=N)N2C2OC3COC(C)(C)OC3C3OC(C)(C)OC32)NC(=O)C(C(O)C2CNC(=N)N2)NC(=O)C(Cc2ccc(O)cc2)NC1=O (stereo not drawn) [Example 247, Cyclo[glycyl-β-methylphenylalanyltyrosyl-3-(2-iminoimidazolidin-4-yl)seryl-3-(2,3:4,6-diisopropylidenehexopyranosyl)-2-iminoimidazolidin-4-ylserylseryl]] (cyclo(G[ξPhe(βξ-Me)]Y[ξEnduracididine(βξ-OH,4'ξ)][X3]S); configuration not given here)
>64 µg/mL: MIC Coagulase Negative Staphylococcus (GC 4547) ([1]; Coagulase Negative Staphylococcus (GC 4547)) | MIC Coagulase Negative Staphylococcus (GC 4548) ([1]; Coagulase Negative Staphylococcus (GC 4548)) | MIC Coagulase Negative Staphylococcus (GC 4549) ([1]; Coagulase Negative Staphylococcus (GC 4549)) | MIC Coagulase Negative Staphylococcus (GC 4551) ([1]; Coagulase Negative Staphylococcus (GC 4551)) | MIC Coagulase Negative Staphylococcus (GC 6257) ([1]; Coagulase Negative Staphylococcus (GC 6257)) | MIC Staphylococcus aureus (ATCC 29213) ([1]; Staphylococcus aureus (ATCC 29213)) | MIC Staphylococcus aureus (GC 1131) ([1]; Staphylococcus aureus (GC 1131)) | MIC Staphylococcus aureus (GC 3051) ([1]; Staphylococcus aureus (GC 3051)) | MIC Staphylococcus aureus (GC 3053) ([1]; Staphylococcus aureus (GC 3053)) | MIC Staphylococcus aureus (GC 4541) ([1]; Staphylococcus aureus (GC 4541)) | MIC Staphylococcus aureus (GC 4542) ([1]; Staphylococcus aureus (GC 4542)) | MIC Staphylococcus aureus (GC 4544) ([1]; Staphylococcus aureus (GC 4544)) | MIC Staphylococcus aureus (GC 4545) ([1]; Staphylococcus aureus (GC 4545)) | MIC Staphylococcus aureus-SMITH (GC 4543) ([1]; Staphylococcus aureus-SMITH (GC 4543)) | MIC Staphylococcus haemolyticus (GC 4546) ([1]; Staphylococcus haemolyticus (GC 4546)) | MIC Escherichia coli (ATCC 25922) ([2]; Escherichia coli (ATCC 25922)) | MIC Escherichia coli (GC 4559) ([2]; Escherichia coli (GC 4559)) | MIC Escherichia coli (GC 4560) ([2]; Escherichia coli (GC 4560)) | MIC Enterococcus avium (GC 4558) ([3]; Enterococcus avium (GC 4558)) | MIC Enterococcus faecalis (ATCC 29212) ([3]; Enterococcus faecalis (ATCC 29212)) | MIC Enterococcus faecalis (GC 2242) ([3]; Enterococcus faecalis (GC 2242)) | MIC Enterococcus faecalis (GC 2691) ([3]; Enterococcus faecalis (GC 2691)) | MIC Enterococcus faecalis (GC 3059) ([3]; Enterococcus faecalis (GC 3059)) | MIC Enterococcus faecalis (GC 4552) ([3]; Enterococcus faecalis (GC 4552)) | MIC Enterococcus faecalis (GC 4553) ([3]; Enterococcus faecalis (GC 4553)) | MIC Enterococcus faecalis (GC 4554) ([3]; Enterococcus faecalis (GC 4554)) | MIC Enterococcus faecalis (GC 6189) ([3]; Enterococcus faecalis (GC 6189)) | MIC Enterococcus faecium (GC 2243) ([3]; Enterococcus faecium (GC 2243)) | MIC Enterococcus faecium (GC 4556) ([3]; Enterococcus faecium (GC 4556)) | MIC Enterococcus faecium (GC 4557) ([3]; Enterococcus faecium (GC 4557)) | MIC Streptococcus agalactiae (GC 4564) ([4]; Streptococcus agalactiae (GC 4564)) | MIC Streptococcus pneumoniae (ATCC 6301) ([4]; Streptococcus pneumoniae (ATCC 6301)) | MIC Streptococcus pneumoniae (GC 1894) ([4]; Streptococcus pneumoniae (GC 1894)) | MIC Streptococcus pneumoniae (GC 4565) ([4]; Streptococcus pneumoniae (GC 4565)) | MIC Streptococcus pyogenes (GC 4563) ([4]; Streptococcus pyogenes (GC 4563))

— patent US8247211B2, “Glycopeptide antibiotics” (American Cyanamid Company, priority 2001, dated 2012)
